Assays:
[1] = Hepatic microsomal stability, MLM; format: in vitro ADME
[2] = In vitro dog liver microsomal stability; format: in vitro ADME
From the text: Supplement media-1.zip/Hepatic_Microsomal_Stability.csv, table | column: clint; t_half

[3] = target: T1, H1 (h) (Homo sapiens, UniProt P35367); test: In vitro CEREP profiling, H1 (h) (antagonist radioligand); format: binding; conditions: test compound concentration 10 uM
T1 construct: purchased Eurofins Cerep (SafetyScreen44), recognised from the panel format
From the text: (§1) Supplement media-1.zip/Safety_Panel_Profile.csv, table | column: perc_inhibition

[4] = system: AR(h); test: In vitro CEREP profiling, AR(h) (agonist radioligand); format: binding, human; conditions: test compound concentration 10 uM
From the text: as §1

[5] = target: T2, CB2 (h) (Homo sapiens, UniProt P34972); test: In vitro CEREP profiling, CB2 (h) (agonist radioligand); format: binding; conditions: test compound 10 uM
T2 construct: purchased Eurofins Cerep (SafetyScreen44), recognised from the panel format
From the text: as §1

[6] = system: SARS-CoV-2; test: Antiviral effect in iPSC-derived pneumocyte system; format: cell-based; conditions: iPSC pneumocytes SARS-CoV-2 antiviral effect
[7] = system: iPSC pneumocytes; test: iPSC pneumocytes cytotoxicity; format: cell-based
From the text: Supplement media-1.zip/Cytotoxicity.csv, table | column: cc10; cc50; perc_min_measured; perc_max_measured

[8] = target: T3, 5-HT transporter (h) (Homo sapiens, UniProt P31645); test: In vitro CEREP profiling, 5-HT transporter (h) (antagonist radioligand); format: binding; conditions: test compound concentration 10 uM
T3 construct: purchased Eurofins Cerep (SafetyScreen44), recognised from the panel format
From the text: as §1

[9] = In vitro mouse liver microsomal stability
[10] = In vitro mouse liver microsomal stability, no cofactor

T2 sequence (P34972 whole entry): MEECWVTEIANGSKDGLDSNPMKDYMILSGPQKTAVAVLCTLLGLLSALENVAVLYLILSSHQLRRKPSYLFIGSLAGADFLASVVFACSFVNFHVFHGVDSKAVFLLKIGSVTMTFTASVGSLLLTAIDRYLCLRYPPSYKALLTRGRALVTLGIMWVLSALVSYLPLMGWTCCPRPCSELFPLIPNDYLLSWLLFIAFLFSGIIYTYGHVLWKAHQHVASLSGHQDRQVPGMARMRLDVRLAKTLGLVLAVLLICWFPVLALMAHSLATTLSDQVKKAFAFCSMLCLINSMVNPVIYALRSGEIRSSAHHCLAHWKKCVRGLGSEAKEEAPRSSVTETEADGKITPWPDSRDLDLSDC
T1 sequence (P35367 whole entry): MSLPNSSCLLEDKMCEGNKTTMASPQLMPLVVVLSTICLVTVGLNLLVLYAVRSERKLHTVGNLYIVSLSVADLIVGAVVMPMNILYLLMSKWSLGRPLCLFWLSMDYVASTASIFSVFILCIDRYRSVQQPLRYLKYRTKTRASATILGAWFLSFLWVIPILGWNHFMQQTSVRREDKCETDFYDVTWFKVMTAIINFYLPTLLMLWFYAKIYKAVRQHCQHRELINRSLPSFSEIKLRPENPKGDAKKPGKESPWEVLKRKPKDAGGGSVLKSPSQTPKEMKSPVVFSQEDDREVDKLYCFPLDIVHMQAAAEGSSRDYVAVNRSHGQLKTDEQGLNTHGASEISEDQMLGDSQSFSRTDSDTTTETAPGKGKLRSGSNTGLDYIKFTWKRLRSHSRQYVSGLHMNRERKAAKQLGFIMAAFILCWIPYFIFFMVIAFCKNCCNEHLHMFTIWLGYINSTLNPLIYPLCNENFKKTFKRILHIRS
T3 sequence (P31645 whole entry): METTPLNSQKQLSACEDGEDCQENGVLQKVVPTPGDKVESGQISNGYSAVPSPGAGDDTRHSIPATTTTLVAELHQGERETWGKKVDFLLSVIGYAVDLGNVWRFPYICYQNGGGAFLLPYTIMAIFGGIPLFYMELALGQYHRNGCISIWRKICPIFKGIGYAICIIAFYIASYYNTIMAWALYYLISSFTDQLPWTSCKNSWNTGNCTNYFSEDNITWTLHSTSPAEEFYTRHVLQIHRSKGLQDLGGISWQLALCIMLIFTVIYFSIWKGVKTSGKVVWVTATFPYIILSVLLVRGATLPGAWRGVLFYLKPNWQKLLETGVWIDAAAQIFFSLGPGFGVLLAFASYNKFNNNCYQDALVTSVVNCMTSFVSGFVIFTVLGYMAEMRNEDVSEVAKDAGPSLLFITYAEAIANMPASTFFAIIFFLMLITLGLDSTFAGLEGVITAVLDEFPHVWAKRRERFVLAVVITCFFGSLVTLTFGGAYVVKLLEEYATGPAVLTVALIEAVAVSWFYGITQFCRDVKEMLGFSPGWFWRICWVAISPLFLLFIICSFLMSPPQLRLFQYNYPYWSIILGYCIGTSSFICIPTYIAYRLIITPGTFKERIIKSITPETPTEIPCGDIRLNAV

SMILES | perc_remaining [1, 9] | t_half [1, 9] | perc_remaining_no_cofactor [1, 10] | clint [1, 9] | clint [2] | t_half [2] | perc_inhibition (% inhibition of the binding of a ligand specific for each target) [3] | perc_inhibition (% inhibition of the binding of a ligand specific for each target) [4] | perc_inhibition (% inhibition of the binding of a ligand specific for each target) [5] | perc_remaining_no_cofactor ([1]; In vitro mouse liver microsomal stability; no cofactor) | EC50 [6] | EC90 [6] | perc_max_measured ([6]; maximum measured response of dose series) | perc_min_measured ([6]; minimum measured response of dose series) | CC50 [7] | cc10 [7] | perc_max_measured ([7]; highest measured response of the dose series) | perc_min_measured ([7]; lowest measured response of the dose series) | perc_inhibition (% inhibition of the binding of a ligand specific for each target) [8]
COc1ccc([C@@H](Cc2nnn[nH]2)NC(=O)c2ncnc3[nH]ccc23)cc1 [ASAP-0008340] | 96.0% | 4400.5 min | 93.0% |  |  |  |  |  |  |  |  |  |  |  |  |  |  |  | 
CC(C)[C@H](Nc1ncnc2[nH]ccc12)c1ccc2c(c1)S(=O)(=O)CCC2 [ASAP-0008674] | 3.0% | 8.1 min | 104.0% | 207.0 µL/min/mg | 14.3 µL/min/mg | 48.5 min | -3% | 0% | -13% |  |  |  |  |  |  |  |  |  | 
CC(C)[C@H](Nc1ncnc2[nH]c(-c3cnn(C)c3C#N)cc12)c1ccc2c(n1)OCCO2 [ASAP-0010715] |  |  |  |  | 23.7 µL/min/mg | 29.2 min | 5% | -3% | 44% |  |  |  |  |  |  |  |  |  | 
CC(C)[C@@H](Nc1ncnc2[nH]c(-c3cnn(C)c3C#N)cc12)c1ccc2c(n1)OCCO2 [ASAP-0010716] | 1.0% | 4.5 min |  | 371.0 µL/min/mg | 23.2 µL/min/mg | 29.8 min | 0% | 12% | 16% | 99.0% |  |  |  |  |  |  |  |  | 
CNCc1cc(-c2cc3c(N[C@@H](c4ccc5c(c4)S(=O)(=O)CCC5)C(C)C)ncnc3[nH]2)co1 [ASAP-0011176] | 35.0% | 30.9 min | 101.0% | 54.0 µL/min/mg | 20.0 µL/min/mg | 34.7 min | -3% | 10% | -8% |  | 3.34 µM | > 50 µM | 92.989% | 2.106% | > 50 µM | > 50.0 µM | 97.309% | 86.868% | 
C[C@H](C(=O)O)[C@@H](NC(=O)c1ncnc2[nH]ccc12)c1ccc(Br)cc1 [ASAP-0014722] | 111.226% | 379.672 min | 100.245% | 4.0 µL/min/mg | < 5.0 µL/min/mg | > 139.0 min | -8% | 12% | -5% |  |  |  |  |  |  |  |  |  | 0%
COc1ccc([C@H](Cc2nnn[nH]2)NC(=O)c2ncnc3[nH]ccc23)cc1 [ASAP-0015381] | 115.387% | 205.885 min | 100.411% | 7.0 µL/min/mg | < 5.0 µL/min/mg | > 139.0 min | -4% | -2% | -11% |  |  |  |  |  |  |  |  |  | -1%
